Experiments:
[1] = target: T1, human jejunal NK2 receptor (Homo sapiens, UniProt P21452); experiment: Antagonism of iodinated neurokinin A binding to NK2 receptor, HSKR-1 cells (mouse 3T3 fibroblasts expressing the human jejunal NK2 receptor); conditions: for IC50: NK-2 IC50, HSKR-1 cells, 125I-neurokinin A, mean of several experiments
T1 construct: expressed in transfected cells; host or cells: HSKR-1 cells (mouse 3T3 fibroblasts)
T1 sequence (P21452 1-398): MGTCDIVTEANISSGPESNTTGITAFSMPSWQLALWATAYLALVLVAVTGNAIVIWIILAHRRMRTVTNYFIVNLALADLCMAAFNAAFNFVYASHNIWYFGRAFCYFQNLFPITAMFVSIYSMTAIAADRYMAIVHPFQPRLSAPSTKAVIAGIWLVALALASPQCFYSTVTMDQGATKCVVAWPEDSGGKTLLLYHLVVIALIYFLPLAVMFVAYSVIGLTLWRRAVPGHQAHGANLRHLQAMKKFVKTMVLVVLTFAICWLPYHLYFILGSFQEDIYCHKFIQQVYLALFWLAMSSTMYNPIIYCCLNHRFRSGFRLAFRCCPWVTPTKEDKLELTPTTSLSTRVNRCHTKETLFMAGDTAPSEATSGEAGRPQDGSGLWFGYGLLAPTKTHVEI
Protocol: (§1) ANTAGONISM OF IODINATED TACHYKININ BINDING TO NK1 AND NK2
(§2) RECEPTORS BY PUTATIVE ANTAGONISTS
(§3) The NK1 receptor affinity of proposed tachykinin antagonists was evaluated in guinea pig lungs (Keystone Biologicals, Cleveland, OH), affinity for the NK2 receptor evaluated in HSKR-1 cells (which are mouse 3T3 fibroblasts expressing the human jejunal NK2 receptor) and NK-3 receptor affinity was evaluated in freshly collected guinea pig cerebral cortex. Tissues or cells were homogenized with a Polytron in 15 volumes of 50 mM Tris-HCl buffer (pH 7.4, 4° C.) and centrifuged. The pellet was resuspended in Tris-HCl buffer and was centrifuged; the pellet was washed twice by resuspension. The final pellet was resuspended at a concentration of 40 mg/ml for tissues (guinea pig lung and cerebral cortex) and 20 mg/ml for cells in incubation buffer and remained at room temperature for at least 15 min prior to use. Receptor binding was initiated by addition of 250 ul membrane preparation in duplicate to 0.1 nM of the following radioligands: ^125 I-Bolton Hunter Lys-3 labeled substance P; ^125 iodohistidyl-1-neurokinin A; and ^125 I-Bolton Hunter labeled Lys-4 eledoisin in a final volume of 500 ul of buffer containing 50 mM Tris-HCl (pH 7.4 at room temperature), 0.1% bovine serum albumin, 2 mM MnCl2, 40 ug/ml bacitracin, 4 μg/ml leupeptin and chymostatin, 1 μM thiorphan and various doses of the putative tachykinin antagonists. Incubations were performed at room temperature for 90 min (NK1 receptor assays) or 2 hr (NK2 and NK3 receptor assays); binding was terminated by addition of 50 mM Tris-HCl buffer (pH 7.4, 4° C.) and filtration under vacuum through GF/B filters presoaked with 0.1% polyethyleneimine (NK1 receptor assays) or 0.5% bovine serum albumin (NK2 and NK3 receptor assays). Filter bound radioactivity was quantitated in a gamma counter. Nonspecific binding was defined as binding in the presence of 1 μM substance P, neurokinin A, or eledoisin. Specific binding was calculated by subtracting nonspecific binding from total binding. Competition of iodinated SP, NKA, or eledoisin binding by test compounds or standards was expressed as a percentage of this maximum competition. IC50 values (concentration required to inhibit 50% of receptor binding) were generated for each of the test compounds by nonlinear regression using an iterative curve fitting program (GraphPAD Inplot, San Diego, Calif.).

NK1 receptor [2] = target: T2, NK1 receptor (Cavia porcellus, UniProt P30547); experiment: Antagonism of iodinated substance P binding to NK1 receptor, guinea pig lung; conditions: for IC50: NK-1 IC50, guinea pig lung, 125I-substance P, mean of several experiments
T2 construct: evaluated in guinea pig lungs; tissue Keystone Biologicals, Cleveland, OH; host or cells: guinea pig lung
T2 sequence (P30547 whole entry): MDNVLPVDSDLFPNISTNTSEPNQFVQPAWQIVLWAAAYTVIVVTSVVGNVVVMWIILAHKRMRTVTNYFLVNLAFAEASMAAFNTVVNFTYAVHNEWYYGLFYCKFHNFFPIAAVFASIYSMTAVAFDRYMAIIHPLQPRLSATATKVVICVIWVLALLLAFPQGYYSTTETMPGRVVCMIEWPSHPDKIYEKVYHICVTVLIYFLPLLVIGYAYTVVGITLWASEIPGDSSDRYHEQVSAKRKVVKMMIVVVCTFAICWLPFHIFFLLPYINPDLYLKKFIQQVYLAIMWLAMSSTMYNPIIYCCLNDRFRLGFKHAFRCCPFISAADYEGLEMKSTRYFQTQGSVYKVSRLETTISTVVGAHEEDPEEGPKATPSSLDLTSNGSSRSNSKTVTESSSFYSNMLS
Protocol: as §1, §2, §3

NK1 receptor [3] = target: T3, NK1 receptor (Homo sapiens, UniProt P25103); experiment: Antagonism of NK1 receptor mediated (SP-induced) phosphatidylinositol turnover in UC11 cells; type: cell-based
T3 construct: antagonizes both NK1 (on UC11 cells); endogenous in cells; host or cells: UC11 cells
T3 sequence (P25103 whole entry): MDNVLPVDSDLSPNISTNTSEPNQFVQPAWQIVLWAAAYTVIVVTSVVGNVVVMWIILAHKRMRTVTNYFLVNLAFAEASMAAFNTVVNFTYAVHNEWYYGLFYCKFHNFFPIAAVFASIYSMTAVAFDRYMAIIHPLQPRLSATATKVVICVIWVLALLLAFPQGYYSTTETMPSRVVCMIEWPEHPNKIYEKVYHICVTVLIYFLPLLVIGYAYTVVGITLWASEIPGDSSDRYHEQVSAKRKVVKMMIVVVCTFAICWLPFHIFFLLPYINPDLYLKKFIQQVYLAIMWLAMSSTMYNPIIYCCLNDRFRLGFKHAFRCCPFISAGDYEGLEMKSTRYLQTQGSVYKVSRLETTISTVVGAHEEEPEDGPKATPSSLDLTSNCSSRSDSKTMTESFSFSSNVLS
Protocol: Tachykinin-mediated inositol phosphate accumulation was measured in UC11 or SKLKB82#3 cells in the presence and absence of NK1 or NK2 receptor antagonists, respectively. Tissues were incubated in Krebs-Henseleit buffer at 37° C. with 95% O2 -5% CO2 gassing. Tissues were then incubated with fresh buffer containing 100 μCi of myo-[2-3H(N)] inositol at 37° C. for 60 min with gentle gassing. After washing twice in 5 ml room temperature buffer containing 10 mM LiCl, tissues were incubated for 30 min at room temperature with a buffer change at 15 min. Buffer was removed and Krebs-Henseleit buffer (containing 40 μg/ml bacitracin, 4 μg/ml each of leupeptin and chymostatin, 0.1% bovine serum albumin and 10 mM each of thiorphan and LiCl) added. After 15 min, SP was added to UC11 cells or NKA to SKLKB82#3 cells at various concentrations to start the reaction. After incubation for 60 min at room temperature the reaction was terminated by addition of 930 μl chloroform: methanol (1:2 by volume) to each tube, followed by 310 μl chloroform and 310 μl doubly distilled water. Samples were vortexed, centrifuged, and 0.9 ml of the aqueous (top) phase removed and added to 2 ml ddH2 O. The mixture was vortexed and loaded onto a 50% Bio-Rad AG 1-X8 (formate form, 100-200 mesh) exchange column (Bio-Rad Laboratories, Hercules, Calif.). The columns were washed, in order, with: 1) 10 ml doubly distilled water, 2) 5 ml of 5 mM disodium tetraborate/60 mM sodium formate, and 3) 5 ml of 1M ammonium formate/0.1M formic acid. The third elution was collected and 1 ml counted in 7 ml scintillation fluid. A 50 μl aliquot of the organic (bottom) phase was removed, dried in a scintillation vial and counted in 7 ml scintillation fluid.
The ratio of DPM in the aqueous phase aliquot (total inositol phosphates) to the DPM in the 50 μl organic phase aliquot (total [^3 H]inositol incorporated) was calculated for each sample. Data are expressed as a percent of agonist-induced accumulation of [^3 H]-inositol phosphates over basal levels. The ratios in the presence of test compound and/or standards were compared to the ratios for control samples (i.e. no stimulating agonist). Dose-response graphs were constructed and the abilities of the test compounds to inhibit tachykinin-induced phosphatidyinositol turnover determined with the aid of a computer program. […] Data is expressed as percent stimulation of total inositol phosphate accumulation over basal levels and normalized to the maximum response produced by SP. […] Schild analysis is performed using dose response curves (such as those presented in FIGS. 1a and 1b) to obtain a value indicative of the strength of a competitive antagonist and is expressed as the pA2, which is the negative logarithm of the molar concentration of antagonist which reduces the effect of a dose of agonist to one-half of that expected at the dose of agonist.

SMILES	IC50 [1] [nM]	IC50 (NK1 receptor [2]) [nM]	relative antagonism of NK1 and NK2 receptors (in words) (NK1 receptor [3]; PI turnover, UC11 (NK1) versus SKLKB82#3 (NK2) cells)	Kb (NK1 receptor [3]; UC11 cells, SP, Schild analysis, mean (95% confidence limits), 2-3 experiments, read-out: NK-1 receptor pA2 (converted)) [nM]	affinity for NK2 receptors (in words) ([1]; HSKR-1 cells)	affinity for NK1 receptors (in words) (NK1 receptor [2]; guinea pig lung)	antagonism of SP-induced PI turnover (in words) (NK1 receptor [3]; UC11 cells, FIG. 1a)	agonist activity (stimulation of PI turnover by compound alone) (NK1 receptor [3]; UC11 or SKLKB82#3 cells)
COc1cc(C(=O)N2CCC(CCN3CCC(C(N)=O)(c4ccccc4)CC3)(c3ccc(Cl)c(Cl)c3)C2)cc(OC)c1OC (single isomer, unassigned; (+)) [Example 20, (+)-1-[2-[3-(3,4-dichloro-phenyl)-1-(3,4,5-trimethoxy-benzoyl)-pyrrolidin-3-yl]-ethyl]-4-phenylpiperidine-4-carboxylic acid amide]	8.4	4.65	antagonized both NK1 and NK2 receptors by nearly equivalent amounts	6.46	–	–	–	–
COc1cc(C(=O)N2CCC(CCN3CCC(C(N)=O)(c4ccccc4)CC3)(c3ccc(Cl)c(Cl)c3)C2)cc(OC)c1OC.Cl (single isomer, unassigned; (+)) [Example 20A, (+)-1-[2-[3-(3,4-dichloro-phenyl)-1-(3,4,5-trimethoxy-benzoyl)-pyrrolidin-3-yl]-ethyl]-4-phenyl-piperidine-4-carboxylic acid amide hydrochloride]	7.93	2.99	–	–	–	–	–	–
COc1cc(C(=O)N2CCC(CCN3CCC(C(N)=O)(c4ccccc4)CC3)(c3ccc(Cl)c(Cl)c3)C2)cc(OC)c1OC (stereo not shown) [Example 3, 1-[2-[3-(3,4-dichloro-phenyl)-1-(3,4,5-trimethoxy-benzoyl)-pyrrolidin-3-yl]-ethyl]-4-phenyl-piperidine-4-carboxylic acid amide]	–	–	–	–	high affinity	high affinity	antagonizes both NK1 (on UC11 cells) and NK2 (on SKLKB82#3) receptors in a dose-dependent manner	no agonist activity

— patent publication US5635510A, “Substituted pyrrolidin-3-yl-alkyl-piperidines” (Merrell Pharmaceuticals Inc., priority 1994, dated 1997)
